Source: publication PMC12238850, “Molecular determinants for recognition of serotonylated chromatin” (Nucleic Acids Research, 2025)
Where a chain is given by its changes, count along the chain named. Like-named read-outs stand apart in the source and are kept apart here.

Legend:
Type in all cases: binding
[1] = biological target: T1, PHF8 PHD (37–102, GST-tagged) (Homo sapiens, UniProt Q9UPP1); experiment: ITC of GST-tagged PHF8 PHD
T1 construct: PHF8 (37–102); made in house; host or cells: E. coli BL21(DE3)
T1 sequence (Q9UPP1 37-102): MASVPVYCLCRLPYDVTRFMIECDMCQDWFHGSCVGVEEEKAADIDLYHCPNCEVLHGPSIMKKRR
Source text: (§1) The coding sequences of Mus musculus Taf3-PHD domain (residues 857–924) and Homosapiens PHF2 (1–66), PHF8 (37–102), and BPTF(2) (2865–2921) were cloned into the pGEX2T-derived vector, pRP265NB, for bacterial expression of GST-tagged proteins. Note that the PHD fingers of M. musculus Taf3 and H. sapiens TAF3 differ in a single amino acid. A901 in mouse corresponds to T899 in human. Here, amino acid numbering corresponds to mouse Taf3 isoform 1 with UniProt ID: Q5HZG4, accessible at https://www.uniprot.org/uniprotkb/Q5HZG4/entry. Single or double mutations were introduced by mutagenesis polymerase chain reaction and validated by Sanger sequencing. A single colony of freshly transformed BL21(DE3) Escherichia coli bacteria with the corresponding construct was grown in Luria broth (LB) medium supplemented with 50 μg/ml ampicillin until an OD600 of 0.7. […]
(§2) ITC experiments were performed at 20°C with a MicroCal VP-ITC microcalorimeter (Malvern) by sequential injection of 10 μl at 300 μM histone peptide during 20 s into the sample cell containing 30 or 15 μM of GST-Taf3 (wild type or mutant) or GST-BPTF, GST-PHF2, and GST-PHF8 PHDs in ITC buffer (100 mM NaCl, 20 mM Tris–HCl, pH 7.5). […] ITC data were subsequently analysed and fitted with the one-site binding model in the MicroCal ITC Origin Analysis software 7.0 (Table 1, Figs 3B and 5A, Supplementary Table S3, and Supplementary Fig. S10). […]

[2] = biological target: T2, BPTF(2) PHD (2865–2921, GST-tagged) (Homo sapiens, UniProt Q12830); experiment: ITC of GST-tagged BPTF(2) PHD
T2 construct: BPTF(2) (2865–2921); made in house; host or cells: E. coli BL21(DE3)
Source text: as §1, §2

[3] = biological target: T3, PHF2 PHD (1–66, GST-tagged) (Homo sapiens, UniProt O75151); experiment: ITC of GST-tagged PHF2 PHD
T3 construct: PHF2 (1–66); made in house; host or cells: E. coli BL21(DE3)
T3 sequence (O75151 1-66): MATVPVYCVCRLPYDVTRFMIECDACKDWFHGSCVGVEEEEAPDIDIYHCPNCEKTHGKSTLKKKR
Source text: as §1, §2

[4] = biological target: T4, TAF3 W894L (GST-tagged PHD) (Mus musculus, UniProt Q5HZG4, W894L); experiment: ITC of GST-tagged Taf3-PHD W894L
T4 construct: Mus musculus Taf3-PHD domain (residues 857–924); made in house; host or cells: E. coli BL21(DE3)
T4 sequence (Q5HZG4 857-924 W894L): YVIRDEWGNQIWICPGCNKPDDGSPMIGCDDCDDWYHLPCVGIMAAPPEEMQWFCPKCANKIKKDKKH
Source text: as §1, §2

[5] = biological target: T5, TAF3 P881E W894F (GST-tagged PHD) (Mus musculus, UniProt Q5HZG4, P881E/W894F); experiment: ITC of GST-tagged Taf3-PHD P881E W894F
T5 construct: Mus musculus Taf3-PHD domain (residues 857–924); made in house; host or cells: E. coli BL21(DE3)
T5 sequence (Q5HZG4 857-924 P881E/W894F): T4 sequence (Q5HZG4 857-924 W894L) with P25E, L38F
Source text: as §1, §2

[6] = biological target: T6, TAF3 WT (GST-tagged Taf3-PHD, residues 857–924) (Mus musculus, UniProt Q5HZG4); experiment: ITC of GST-tagged Taf3-PHD wild type
T6 construct: Mus musculus Taf3-PHD domain (residues 857–924); made in house; host or cells: E. coli BL21(DE3)
T6 sequence (Q5HZG4 857-924): T4 sequence (Q5HZG4 857-924 W894L) with L38W
Source text: as §1, §2

[7] = biological target: T7, TAF3 P881E (GST-tagged PHD) (Mus musculus, UniProt Q5HZG4, P881E); experiment: ITC of GST-tagged Taf3-PHD P881E
T7 construct: Mus musculus Taf3-PHD domain (residues 857–924); made in house; host or cells: E. coli BL21(DE3)
T7 sequence (Q5HZG4 857-924 P881E): T4 sequence (Q5HZG4 857-924 W894L) with P25E, L38W
Source text: as §1, §2

[8] = biological target: T8, TAF3 A902L (GST-tagged PHD) (Mus musculus, UniProt Q5HZG4, A902L); experiment: ITC of GST-tagged Taf3-PHD A902L
T8 construct: Mus musculus Taf3-PHD domain (residues 857–924); made in house; host or cells: E. coli BL21(DE3)
T8 sequence (Q5HZG4 857-924 A902L): T4 sequence (Q5HZG4 857-924 W894L) with L38W, A46L
Source text: as §1, §2

[9] = biological target: T9, TAF3 S880A (GST-tagged PHD) (Mus musculus, UniProt Q5HZG4, S880A); experiment: ITC of GST-tagged Taf3-PHD S880A
T9 construct: Mus musculus Taf3-PHD domain (residues 857–924); made in house; host or cells: E. coli BL21(DE3)
T9 sequence (Q5HZG4 857-924 S880A): T4 sequence (Q5HZG4 857-924 W894L) with S24A, L38W
Source text: as §1, §2

[10] = ITC, 20°C, 100 mM NaCl, 20 mM Tris–HCl, pH 7.5, one-site model, ± = standard error of fit, read-out: K D

Structure (SMILES)	Kd [1] [nM]	Kd [2] [nM]	Kd [3] [nM]	Kd [4] [nM]	Kd [5] [nM]	Kd [6] [nM]	Kd [7] [nM]	Kd [8] [nM]	Kd [9] [nM]	Kd [1, 10] [nM]	Kd [2, 10] [nM]	Kd [3, 10] [nM]	Kd [4, 10] [nM]	Kd [5, 10] [nM]	Kd ([6]; ITC, 20°C, 100 mM NaCl, 20 mM Tris–HCl, pH 7.5, 300 μM peptide into 30 or 15 μM GST-PHD, one-site model, ± = standard error of fit, representative experiment, read-out: K D) [nM]	Kd [7, 10] [nM]	Kd [8, 10] [nM]	Kd [9, 10] [nM]
C[C@H](N)C(=O)N[C@@H](CCCNC(=N)N)C(=O)N[C@H](C(=O)N[C@@H](CCCC[N+](C)(C)C)C(=O)N[C@@H](CCC(=O)NCCc1c[nH]c2ccc(O)cc12)C(=O)N[C@H](C(=O)N[C@@H](C)C(=O)N[C@@H](CCCNC(=N)N)C(=O)N[C@@H](CCCCN)C(=O)N[C@@H](CO)C(=O)N[C@H](C(=O)NCC(N)=O)[C@@H](C)O)[C@@H](C)O)[C@@H](C)O [H3K4me3Q5ser]	275 ± 19	1240 ± 50	201 ± 22	324 ± 18	111 ± 14	98 ± 8	136 ± 4	51 ± 3	65 ± 5	–	–	–	–	–	–	–	–	–
C[C@H](N)C(=O)N[C@@H](CCCNC(=N)N)C(=O)N[C@H](C(=O)N[C@@H](CCCC[N+](C)(C)C)C(=O)N[C@@H](CCC(N)=O)C(=O)N[C@H](C(=O)N[C@@H](C)C(=O)N[C@@H](CCCNC(=N)N)C(=O)N[C@@H](CCCCN)C(=O)N[C@@H](CO)C(=O)N[C@H](C(=O)NCC(N)=O)[C@@H](C)O)[C@@H](C)O)[C@@H](C)O [H3K4me3]	–	–	–	–	–	–	–	–	–	418 ± 20	1300 ± 49	286 ± 23	595 ± 35	123 ± 10	260 ± 16	148 ± 4	166 ± 17	207 ± 34
